From patent US9708314B2, “Heterocyclic amide compound” (NISSAN CHEMICAL INDUSTRIES, LTD., priority 2013, dated 2017)

Experiments:
[1] = system: Echinochloa oryzacola Vasing.; experiment: Test Example 1: herbicidal activity, application before weed generation in submerged conditions; assay type: in vivo; conditions: Application herbicide amount 320 g/ha; Seventeenth Table
Summary of the method: (§1)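 Rating, on a six-step scale from almost no effect (0) to almost completely withered (5), was made three weeks after pre-emergence treatment. Treatment was surface application to flooded pots at g/ha rates, with plants kept at 25° C. to 30° C.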

Monochoria vaginalis = experiment: as above; assay type: in vivo; conditions: Application herbicide amount 320 g/ha; Seventeenth Table
Summary of the method: as §1

Scirpus juncoides = experiment: as above; assay type: in vivo; conditions: Application herbicide amount 320 g/ha; Seventeenth Table
Summary of the method: as §1

[2] = system: transplanted Oryza sativa; experiment: Test Example 1: effect on crop, application before weed generation in submerged conditions; assay type: in vivo; conditions: Application herbicide amount 320 g/ha; Seventeenth Table
Summary of the method: as §1

[3] = system: directly sowed Oryza sativa; experiment: Test Example 3: effect on crop by application to foliage (Wagner pot, water depth 0.1-0.5 cm); assay type: in vivo; conditions: Nineteenth Table
Summary of the method: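 Three weeks after spraying, each species was graded 0–5 for herbicidal ratio, 5 being 90% or more. Application: water-diluted emulsifiable concentrate at a fixed g/ha to foliage of 14-day-old greenhouse (25–30 °C) plants in alluvial soil.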

Amaranthus retroflexus = experiment: Test Example 4: herbicidal effect by application to foliage (diluvial soil, plastic box); assay type: in vivo; conditions: application to foliage, application herbicide amount 320 g/ha
Summary of the method: (§2)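 Emulsion-formulated compound, diluted to a predetermined g/ha dose, applied by small sprayer to leaves and stems of 14-day-old seedlings grown in sterilized diluvial soil. Effect rated on 0–5 herbicidal-ratio scale three weeks on.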

Stellaria media = experiment: as above; assay type: in vivo; conditions: application to foliage, application herbicide amount 320 g/ha
Summary of the method: as §2

[4] = application herbicide amount 320 g/ha

SMILES	A: Echinochloa oryzicola Vasing. (herbicidal effect grade) [1]	C: Monochoria vaginalis (herbicidal effect grade) (Monochoria vaginalis)	B: Scirpus juncoides (herbicidal effect grade) (Scirpus juncoides)	a: transplanted Oryza sativa (effect on crop grade) [2]	b (directly sowed Oryza sativa) effect on crop grade [3, 4]	N (Amaranthus retroflexus) herbicidal effect (Amaranthus retroflexus)	P (Stellaria media) herbicidal effect (Stellaria media)	melting point [°C]	b (directly sowed Oryza sativa) effect on crop grade ([3]; application herbicide amount 400 g/ha)
CSc1nnc2c(C(=O)Nc3nnc(C)o3)ccc(C(F)(F)F)n12 [1-018, N-(5-Methyl-1,3,4-oxadiazol-2-yl)-3-(methylthio)-5-(trifluoromethyl)-[1,2,4]triazol o[4,3-a]pyridine-8-carboxamide]	1 (Herbicidal ratio of 5% or more and less than 20%)	5 (Herbicidal ratio of 90% or more (almost completely withered))	3 (Herbicidal ratio of 40% or more and less than 70%)	0 (Herbicidal ratio of 5% or less (almost no effect))	2 (Herbicidal ratio of 20% or more and less than 40%)	4 (Herbicidal ratio of 70% or more and less than 90%)	4 (Herbicidal ratio of 70% or more and less than 90%)	230 to 233	
Cc1nnc(NC(=O)c2ccc(C(F)(F)F)n3c(C(C)C)nnc23)o1 [1-004, 3-Isopropyl-N-(5-methyl-1,3,4-oxadiazol-2-yl)-5-(trifluoromethyl)-[1,2,4]triazolo[4,3-a]pyridine-8-carboxamide]	5 (Herbicidal ratio of 90% or more (almost completely withered))	4 (Herbicidal ratio of 70% or more and less than 90%)	4 (Herbicidal ratio of 70% or more and less than 90%)	1 (Herbicidal ratio of 5% or more and less than 20%)		4 (Herbicidal ratio of 70% or more and less than 90%)	5 (Herbicidal ratio of 90% or more (almost completely withered))	176 to 178	0 (Herbicidal ratio of 5% or less (almost no effect))
Cc1nnc(NC(=O)c2ccc(C(F)(F)F)n3c(C4CCCC4)nnc23)o1 [1-026]	5 (Herbicidal ratio of 90% or more (almost completely withered))	4 (Herbicidal ratio of 70% or more and less than 90%)	4 (Herbicidal ratio of 70% or more and less than 90%)	2 (Herbicidal ratio of 20% or more and less than 40%)	4 (Herbicidal ratio of 70% or more and less than 90%)	4 (Herbicidal ratio of 70% or more and less than 90%)	5 (Herbicidal ratio of 90% or more (almost completely withered))		
Cc1nnc(NC(=O)c2ccc(C(F)(F)F)n3c(S(C)(=O)=O)nnc23)o1 [1-040]	3 (Herbicidal ratio of 40% or more and less than 70%)	3 (Herbicidal ratio of 40% or more and less than 70%)	3 (Herbicidal ratio of 40% or more and less than 70%)	1 (Herbicidal ratio of 5% or more and less than 20%)	3 (Herbicidal ratio of 40% or more and less than 70%)	5 (Herbicidal ratio of 90% or more (almost completely withered))	5 (Herbicidal ratio of 90% or more (almost completely withered))		
CC[S+]([O-])c1nnc2c(C(=O)Nc3nnc(C)o3)ccc(C(F)(F)F)n12 (stereo not shown) [1-034]	4 (Herbicidal ratio of 70% or more and less than 90%)	4 (Herbicidal ratio of 70% or more and less than 90%)	4 (Herbicidal ratio of 70% or more and less than 90%)	3 (Herbicidal ratio of 40% or more and less than 70%)	5 (Herbicidal ratio of 90% or more (almost completely withered))	5 (Herbicidal ratio of 90% or more (almost completely withered))	5 (Herbicidal ratio of 90% or more (almost completely withered))		
CCCc1nnc2c(C(=O)Nc3nnc(C)o3)ccc(C(F)(F)F)n12 [1-024]	5 (Herbicidal ratio of 90% or more (almost completely withered))	0 (Herbicidal ratio of 5% or less (almost no effect))	2 (Herbicidal ratio of 20% or more and less than 40%)	0 (Herbicidal ratio of 5% or less (almost no effect))	2 (Herbicidal ratio of 20% or more and less than 40%)	5 (Herbicidal ratio of 90% or more (almost completely withered))	4 (Herbicidal ratio of 70% or more and less than 90%)		
CC(C)c1nnc2c(C(=O)Nc3nnc(C4CC4)o3)ccc(C(F)(F)F)n12 [1-051]	5 (Herbicidal ratio of 90% or more (almost completely withered))	4 (Herbicidal ratio of 70% or more and less than 90%)	4 (Herbicidal ratio of 70% or more and less than 90%)	0 (Herbicidal ratio of 5% or less (almost no effect))	0 (Herbicidal ratio of 5% or less (almost no effect))	3 (Herbicidal ratio of 40% or more and less than 70%)	3 (Herbicidal ratio of 40% or more and less than 70%)		
Cc1nnc(NC(=O)c2ccc(C(F)(F)F)n3c(C[S+](C)[O-])nnc23)o1 (stereo not shown) [1-036]	4 (Herbicidal ratio of 70% or more and less than 90%)	3 (Herbicidal ratio of 40% or more and less than 70%)	3 (Herbicidal ratio of 40% or more and less than 70%)	4 (Herbicidal ratio of 70% or more and less than 90%)	4 (Herbicidal ratio of 70% or more and less than 90%)	5 (Herbicidal ratio of 90% or more (almost completely withered))	5 (Herbicidal ratio of 90% or more (almost completely withered))		
